Patent US10920236B2, “Use of micropeptides in order to stimulate mycorrhizal symbiosis” (UNIVERSITE TOULOUSE III—PAUL SABATIER, priority 2014, dated 2021)

Columns and labels:
[1] = tested on: mycorrhization of Oryza sativa by Rhizophagus irregularis; assay: Mycorrhization of Oryza sativa (rice); type: in vivo; settings: 0.1 μM, 5 weeks post inoculation; vs solvent control; FIGS. 13, 14, 15, 16 and 19
Experimental: The effects of the osmiPEP171i on mycorrhization of the rice were analyzed by treating the plants with osmiPEP171i in parallel with the mycorrhization.
The seeds are sterilized for 1 min with 70% ethanol, then for 30 min with sodium hypochlorite solution before rinsing.
Culturing of a previously germinated seed of rice is carried out in a pot containing vermiculite with cotton fibre at the bottom. 500 spores of Rhizophagus irregularis are added per pot. The spores in mixtures in a substrate are arranged in a layer on the vermiculite at approximately two thirds of the height of the pot. The remainder of the pot is then filled with vermiculite and a hole is made for placing a germinated rice seed therein. The substrate is moistened. The pots are then placed in a growing room at 25° C.
Treatments of the Plants with miPEP: • OsmiPEP171i: 0.1 μM (final) • Control: equivalent of 50% ACN solution
The treatments are carried out on Monday and Friday by mixing the solution of miPEP or control in 60 ml of nutrient solution (1/2 Hoagland with 25 μM Pi and Sequestren) and on Wednesday the solution of miPEP or control in 60 ml of water. Each plant is watered with 10 ml per pot. […]

[2] = tested on: mycorrhization of Solanum lycopersicum by Rhizophagus irregularis; assay: Mycorrhization of Solanum lycopersicum (tomato); type: in vivo; settings: 0.1 μM slmiPEP171e, watering every two days, 12 weeks post inoculation; vs solvent; FIGS. 8 and 17
Experimental: The effects of slmiPEP171e on mycorrhization of the tomato were analyzed by treating the plants with slmiPEP171e in parallel with the mycorrhization.
The seeds are sterilized for 2 minutes in sodium hypochlorite solution diluted ¼, then rinsed at least 8 times with sterile water.
The seeds are placed in a Petri dish containing water+1% agar. The dishes are placed at 4° C. overnight, then they are placed at ambient temperature for 4 days in order to germinate the seeds.
The germinated seeds are transferred to an Oil-Dry® substrate containing spores of Rhizophagus irregularis at the concentration of 400 spores/L. After two days of adaptation under mini-greenhouse the seedlings are transferred to a growing room or greenhouse. The plants are watered regularly with a solution of Long Ashton+nitrogen (Lauressergues et al., Plant J. 72(3):512-22, 2012).
The treatment is carried out by watering the plants with 12.5 ml of water+the concentrated solution of miPEP or the equivalent of solvent solution (50% acetonitrile) for the control treatment. The treatments are carried out every two days.
The roots are cleared with 1% KOH 7 minutes at 90° C., then stained 10 minutes in an ink solution (5% Sheaffer ink; 5% acetic acid) at 90° C.

miR171b = assay: Accumulation of miR171b in M. truncatula roots (qRT-PCR); type: in vivo, Medicago truncatula
Experimental: (§1) The surface of the seeds of M. truncatula was sterilized and they were placed to germinate on agar plates for 5 days at 4° C. in the dark. The young shoots were then grown on 12 cm square plates filled with Fahraeus medium without nitrogen and containing 7.5 μM phosphate (Lauresergues et al., Plant J., 72(3):512-22, 2012). The lateral roots were counted every day. In pots, the plants were watered every two days with modified Long Ashton medium containing little phosphorus (Balzergue et al., 2011 Journal of experimental botany, 62:1049-1060).
(§2) The peptides were synthesized by Eurogentec or Smartox-Biotech. The miPEP171b was placed in suspension in a water 40%/acetonitrile 50%/acetic acid 10% (v/v/v) solution.
The RNA was extracted by using the reagent Tri-Reagent (MRC) according to the manufacturer's instructions, with the exception of precipitation of the RNA which was carried out with 3 volumes of ethanol. […]
(§3) The mean values of the relative expression of the genes or of the production of lateral roots were analyzed by using the Student test or the Kruskal-Wallis test. […]
(§4) The composite plants having roots transformed with Agrobacterium Rhizogenes were obtained by the method described in Boisson-Dernier et al. (Mol Plant-Microbe Interact, 18:1269-1276, 2005). The transformed roots were verified and selected by observations of DsRED with a binocular fluorescence magnifier. […]

[3] = tested on: lateral roots of M. truncatula; assay: Number of lateral roots in M. truncatula; type: in vivo, Medicago truncatula
Experimental: as §1, §2
The mean values of the relative expression of the genes or of the production of lateral roots were analyzed by using the Student test or the Kruskal-Wallis test. The error bars represent the standard error of the mean (SEM). The asterisks indicate a significant difference (p<0.05).
The DNA fragments of interest were amplified with Pfu polymerase (Promega). […]
as §4

[4] = tested on: HAM2 (Accession No. MtGI9-TC120850); assay: Expression of the HAM2 gene in M. truncatula roots (qRT-PCR); type: in vivo, Medicago truncatula
Experimental: as §1, §2
(§5) The total RNA of the roots of M. truncatula was extracted by using the RNeasy Plant Mini Kit extraction kit (Qiagen). […]
as §3, §4

[5] = tested on: HAM1 (Accession No. MtGI9-TC114268); assay: Expression of the HAM1 gene in M. truncatula roots (qRT-PCR); type: in vivo, Medicago truncatula
Experimental: as §1, §2, §5, §3, §4

[6] = tested on: colonization of M. truncatula by the fungus Rhizophagus irregularis; assay: Mycorrhization of M. truncatula by Rhizophagus irregularis; type: in vivo, Medicago truncatula
Experimental: Medicago truncatula plants were treated for 5 weeks, by watering every 2 days, with low concentrations (0.1 μM) of a synthetic peptide the sequence of which is identical to that of miPEP171b, and the percentage colonization of the plant was measured.
Sterile spores of Rhizophagus irregularis (previously called Glomus intraradices) DAOM197198 were purchased from Agronutrition (Carbonne, France).
Seeds of M. truncatula (Gaertn ‘Jemalong’ genotype A17) were sterilized on the surface and placed to germinate on agar plates in the dark for 5 days at 4° C. The plants were then grown on an Oil-Dri US-special substrate (Damolin, Denmark) for 5 to 12 weeks in a growing room and watered every 2 days with modified Long Ashton medium containing a low concentration of phosphate (Balzergue et al., J Exp Bot, 62(3):1049-60, 2011).
For the inoculation of the plants with R. irregularis, 450 spores were used per plant.
After washing in KOH 10% (weight/volume) and rinsing in sterile water, the mycorrhized roots were treated for 30 minutes with wheat germ agglutinin fluorescein conjugate (Invitrogen) which fixes the fungal chitin, then washed 3 times in a PBS buffer. The roots were then observed with an inverted optical microscope or a confocal microscope (Leica, France).
Alternatively, the roots were labelled with black Schaeffer ink according to the protocol described in Vierheilig et al., Appl Environ Microbiol, 64:5004-5007, 1998.
The percentage mycorrhization was measured using grids according to the protocol described in Giovannetti and Mosse, New Phytol, 84:489-500, 1980.
The accurate phenotyping of the mycorrhization was also carried out according to the method of Trouvelot et al., Physiological and Genetical Aspects of Mycorrhizae, pp 217-221, 1986. The frequency of mycorrhization (F) in the root system and the abundance of the arbuscules (A) (as a percentage) were calculated in colonized root sections using the software Mycocalc.
The size of the arbuscules was measured using the software ImageJ. […]

[7] = tested on: mycorrhization of Lotus japonicus by Rhizophagus irregularis; assay: Mycorrhization of Lotus japonicus (birdsfoot trefoil); type: in vivo; settings: 0.1 μM, 5 weeks post inoculation; vs control; FIGS. 9, 10, 11, 12 and 18
Experimental: The effects of the LjmiPEP171b on mycorrhization of the birdsfoot trefoil were analyzed by treating the plants with LjmiPEP171b in parallel with the mycorrhization.
The seeds are sterilized in sodium hypochlorite solution for 20 min then rinsed several times in water.
Culturing of the birdsfoot trefoil plants is carried out in a pot containing vermiculite with cotton fibre at the bottom. 5,000 spores of Rhizophagus irregularis are added per pot. The spores in mixtures in a substrate are arranged in a layer on the vermiculite to approximately two thirds of the height of the pot. The remainder of the pot is then filled with vermiculite and 10 seeds of pre-germinated birdsfoot trefoil are placed in the moist substrate. 3 pots are prepared for each treatment. The pots are then places in a growing room at 25° C.
Treatments of the Plants with miPEP: • LjmiPEP171e: 0.1 μM (final) • Control: water.
The treatments are carried out on Monday and Friday by mixing the solution of miPEP or control with the nutrient solution (suitable B&D medium) and on Wednesday the solution of miPEP or control in water. Each pot is watered with 10 ml except on Friday 30 ml (without changing the quantity of miPEP), in order to last over the weekend. […]

[8] = plant in which miPEP171b is overexpressed vs control plant, FIG. 2A
[9] = synthetic peptide applied to roots, medium containing miPEP171b at 0.01 μM, 0.1 μM or 1 μM, vs control plant, FIG. 3A

MIARYIEREMTSKLGRGRKRAARLVAVFLLG (listed as Oryza sativa) [osmiPEP171i]
mycorrhization of rice [1]: promotes

MKLGNIEGTYFIICLGRYI (listed as Solanum lycopersicum) [slmiPEP171e]
mycorrhization of the tomato [2]: promotes

MLLHRLSKFCKIERDIVYIS (listed as Medicago truncatula) [miPEP171b]
accumulation of miR171b (relative expression) (miR171b; [8]): increase | accumulation of miR171b (relative expression) (miR171b; [9]): increase | average number of lateral roots ([3]; medium containing miPEP171b at 0.1 μM for 5 days and 1 time per day, vs control plant, FIG. 3B): reduction | average number of lateral roots ([3]; plant in which miPEP171b is overexpressed vs control plant, FIG. 2B): reduction | expression of the HAM2 gene (relative expression) [4, 8]: reduction | expression of the HAM2 gene (relative expression) [4, 9]: reduction | expression of the HAM1 gene (relative expression) [5, 8]: reduction | expression of the HAM1 gene (relative expression) [5, 9]: reduction | mycorrhization rate ([6]; 0.1 μM miPEP171b, 5 weeks post inoculation, vs control plants, FIG. 7): greater | mycorrhization (percentage colonization of the plant) ([6]; 0.1 μM synthetic peptide, watering every 2 days for 5 weeks, vs solvent control, FIG. 5): significantly increased | size (surface area) of the arbuscules ([6]; roots treated with 0.1 μM miPEP171b vs control roots, FIG. 6): larger size

MYHRSKAKLCQTDGDDGGGSDM (listed as Lotus japonicus) [LjmiPEP171b]
mycorrhization of birdsfoot trefoil [7]: promotes
